Test results as given in paper PMC10794144, “A novel antibiotic class targeting the lipopolysaccharide transporter” (Nature, 2024).
Read-outs that look alike come from different tables or passages of the source.

Experiments:
Assay in all cases: Off-target screening (CEREP)
Assay type in all cases: binding
Details in all cases: read-out: percent inhibition
5HT1A = target: T1, 5HT1A (Homo sapiens, UniProt P08908)
T1 construct: purchased Eurofins CEREP SA
T1 sequence (P08908 1-422): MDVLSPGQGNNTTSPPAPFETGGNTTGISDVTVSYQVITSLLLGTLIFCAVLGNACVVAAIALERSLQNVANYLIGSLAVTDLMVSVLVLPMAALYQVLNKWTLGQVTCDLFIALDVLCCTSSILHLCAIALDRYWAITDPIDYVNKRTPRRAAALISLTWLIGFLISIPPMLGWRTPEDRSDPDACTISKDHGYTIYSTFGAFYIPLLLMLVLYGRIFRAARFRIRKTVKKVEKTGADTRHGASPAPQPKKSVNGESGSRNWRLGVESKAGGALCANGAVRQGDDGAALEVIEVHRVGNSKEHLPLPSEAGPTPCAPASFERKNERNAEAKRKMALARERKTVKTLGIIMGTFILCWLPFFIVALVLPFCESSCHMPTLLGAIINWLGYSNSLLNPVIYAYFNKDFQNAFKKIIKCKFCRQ
Protocol: (§1) Supplementary Table 1 │ Off-target activity screening f or MCP compou nds […]
(§2) The assays given in the table above were conducted at Eurofins CEREP S A (Celle-Lévescault, France) and were run as single point measurements in duplicates in the presence of 10 µ M of the test compound and reported as percent inhibition of the radioligand signal or control enzymatic activity. n.d., not

Glucocorticoid receptor = target: T2, Glucocorticoid receptor (Homo sapiens, UniProt P04150)
T2 construct: purchased Eurofins CEREP SA
T2 sequence (P04150 1-777): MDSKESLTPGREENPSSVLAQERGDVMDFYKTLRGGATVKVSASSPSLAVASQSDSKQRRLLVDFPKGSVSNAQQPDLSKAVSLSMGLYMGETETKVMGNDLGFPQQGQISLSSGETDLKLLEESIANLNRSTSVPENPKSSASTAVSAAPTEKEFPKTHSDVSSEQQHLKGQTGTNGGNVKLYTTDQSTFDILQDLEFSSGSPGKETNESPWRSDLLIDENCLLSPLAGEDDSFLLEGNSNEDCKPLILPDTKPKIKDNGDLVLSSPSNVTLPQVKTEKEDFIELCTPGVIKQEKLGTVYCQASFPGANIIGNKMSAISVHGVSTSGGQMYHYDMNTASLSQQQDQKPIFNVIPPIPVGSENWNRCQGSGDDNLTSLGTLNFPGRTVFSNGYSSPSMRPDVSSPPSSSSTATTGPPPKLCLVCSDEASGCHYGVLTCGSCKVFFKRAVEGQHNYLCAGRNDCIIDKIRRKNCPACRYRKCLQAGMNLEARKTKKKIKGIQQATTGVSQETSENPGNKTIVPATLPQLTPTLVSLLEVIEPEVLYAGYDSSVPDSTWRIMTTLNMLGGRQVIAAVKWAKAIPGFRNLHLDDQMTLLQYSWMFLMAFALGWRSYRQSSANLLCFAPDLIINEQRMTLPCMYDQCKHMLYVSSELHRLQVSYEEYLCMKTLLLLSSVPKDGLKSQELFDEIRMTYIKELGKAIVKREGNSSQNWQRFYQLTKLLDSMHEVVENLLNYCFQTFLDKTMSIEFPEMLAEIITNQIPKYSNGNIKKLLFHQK
Protocol: as §1, §2

[1] = target: Glycine receptor, strychnine insensitive (Rattus norvegicus, UniProt P35439)
Protocol: as §1, §2

Histamine H3 receptor = target: T3, Histamine H3 receptor (Homo sapiens, UniProt Q9Y5N1)
T3 construct: purchased Eurofins CEREP SA
Protocol: as §1, §2

Kappa opioid receptor = target: T4, Kappa opioid receptor (Homo sapiens, UniProt P41145)
T4 construct: purchased Eurofins CEREP SA
Protocol: as §1, §2

Muscarinic receptor M1 = target: T5, Muscarinic receptor M1 (Homo sapiens, UniProt P11229)
T5 construct: purchased Eurofins CEREP SA
T5 sequence (P11229 1-460): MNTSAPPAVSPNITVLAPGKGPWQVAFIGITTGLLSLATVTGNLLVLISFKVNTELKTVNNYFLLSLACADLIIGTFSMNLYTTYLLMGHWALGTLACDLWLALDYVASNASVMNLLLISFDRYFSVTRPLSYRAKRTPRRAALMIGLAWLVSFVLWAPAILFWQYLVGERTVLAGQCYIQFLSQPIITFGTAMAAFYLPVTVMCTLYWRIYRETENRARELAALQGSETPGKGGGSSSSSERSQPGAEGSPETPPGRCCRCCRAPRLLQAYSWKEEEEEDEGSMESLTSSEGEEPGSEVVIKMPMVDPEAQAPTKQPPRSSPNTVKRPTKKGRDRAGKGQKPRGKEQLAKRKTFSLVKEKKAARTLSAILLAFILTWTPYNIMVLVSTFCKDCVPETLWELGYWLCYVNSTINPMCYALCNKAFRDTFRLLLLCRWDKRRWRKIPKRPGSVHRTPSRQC
Protocol: as §1, §2

PPAR gamma = target: T6, PPAR gamma (Homo sapiens, UniProt P37231)
T6 construct: purchased Eurofins CEREP SA
T6 sequence (P37231 1-505): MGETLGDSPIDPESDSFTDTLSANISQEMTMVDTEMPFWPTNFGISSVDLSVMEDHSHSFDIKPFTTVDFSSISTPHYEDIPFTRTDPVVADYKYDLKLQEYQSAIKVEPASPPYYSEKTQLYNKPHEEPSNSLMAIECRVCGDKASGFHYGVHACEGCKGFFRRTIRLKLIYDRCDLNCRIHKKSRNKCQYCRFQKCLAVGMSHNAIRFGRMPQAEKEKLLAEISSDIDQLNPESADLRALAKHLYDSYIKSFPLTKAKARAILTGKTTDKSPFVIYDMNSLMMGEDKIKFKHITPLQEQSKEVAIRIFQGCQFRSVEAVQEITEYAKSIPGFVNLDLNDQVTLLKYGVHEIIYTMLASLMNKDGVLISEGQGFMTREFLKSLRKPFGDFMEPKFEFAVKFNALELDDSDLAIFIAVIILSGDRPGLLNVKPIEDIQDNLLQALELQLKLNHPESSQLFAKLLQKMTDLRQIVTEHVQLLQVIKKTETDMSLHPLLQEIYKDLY
Protocol: as §1, §2

T3 sequence (Q9Y5N1 whole entry): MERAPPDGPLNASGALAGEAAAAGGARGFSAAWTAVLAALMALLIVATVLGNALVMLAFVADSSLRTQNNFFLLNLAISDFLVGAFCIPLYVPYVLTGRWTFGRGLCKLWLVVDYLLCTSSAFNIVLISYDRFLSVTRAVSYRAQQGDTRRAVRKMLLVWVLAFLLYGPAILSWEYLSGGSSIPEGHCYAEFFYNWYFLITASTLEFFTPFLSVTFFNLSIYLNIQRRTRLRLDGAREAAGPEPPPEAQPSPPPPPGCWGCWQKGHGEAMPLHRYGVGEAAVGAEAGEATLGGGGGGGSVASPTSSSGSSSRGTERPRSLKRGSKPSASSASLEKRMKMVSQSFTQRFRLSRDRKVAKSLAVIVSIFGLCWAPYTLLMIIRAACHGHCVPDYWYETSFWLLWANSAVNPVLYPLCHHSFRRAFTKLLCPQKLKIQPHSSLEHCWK
T4 sequence (P41145 whole entry): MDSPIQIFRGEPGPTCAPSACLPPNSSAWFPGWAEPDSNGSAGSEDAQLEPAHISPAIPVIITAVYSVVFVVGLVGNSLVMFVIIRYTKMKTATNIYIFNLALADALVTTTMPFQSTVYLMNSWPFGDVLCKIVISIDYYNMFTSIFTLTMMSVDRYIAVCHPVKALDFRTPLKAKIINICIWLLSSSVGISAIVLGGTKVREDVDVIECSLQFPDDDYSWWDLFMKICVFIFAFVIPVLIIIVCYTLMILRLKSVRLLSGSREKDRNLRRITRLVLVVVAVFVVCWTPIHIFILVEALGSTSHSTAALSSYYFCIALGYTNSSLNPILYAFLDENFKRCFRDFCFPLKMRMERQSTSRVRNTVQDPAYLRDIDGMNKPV
Sequence of Glycine receptor, strychnine insensitive (P35439 394-800): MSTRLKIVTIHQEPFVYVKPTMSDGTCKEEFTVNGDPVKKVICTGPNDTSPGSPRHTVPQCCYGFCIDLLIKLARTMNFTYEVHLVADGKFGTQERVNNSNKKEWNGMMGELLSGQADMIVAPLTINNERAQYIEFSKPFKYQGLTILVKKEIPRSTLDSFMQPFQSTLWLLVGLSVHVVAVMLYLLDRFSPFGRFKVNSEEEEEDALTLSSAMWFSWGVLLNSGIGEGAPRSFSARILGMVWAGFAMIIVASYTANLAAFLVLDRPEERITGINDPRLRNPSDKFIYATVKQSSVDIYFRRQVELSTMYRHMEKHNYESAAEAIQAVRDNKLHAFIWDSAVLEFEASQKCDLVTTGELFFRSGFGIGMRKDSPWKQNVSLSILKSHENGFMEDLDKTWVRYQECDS

| Compound | inhibition at 10 µM (5HT1A; 10 µM, duplicates) | inhibition at 10 µM (Glucocorticoid receptor; 10 µM, duplicates) | inhibition at 10 µM [1] | inhibition at 10 µM (Histamine H3 receptor; 10 µM, duplicates) | inhibition at 10 µM (Kappa opioid receptor; 10 µM, duplicates) | inhibition at 10 µM (Muscarinic receptor M1; 10 µM, duplicates) | inhibition at 10 µM (PPAR gamma; 10 µM, duplicates) | inhibition at 10 µM (5HT1A) | inhibition at 10 µM (Glucocorticoid receptor) | inhibition at 10 µM (Histamine H3 receptor) | inhibition at 10 µM (Kappa opioid receptor) | inhibition at 10 µM (Muscarinic receptor M1) | inhibition at 10 µM (PPAR gamma) |
| --- | --- | --- | --- | --- | --- | --- | --- | --- | --- | --- | --- | --- | --- |
| CN1C(=O)[C@H](CCCN)NC(=O)[C@H](CCCN)NCc2ccccc2Sc2ccccc2CNC(=O)[C@@H]1Cc1c[nH]c2ccccc12 [RO7036668] | 33% | 3% | -27% | 12% | 69% | 26% | -1% | – | – | – | – | – | – |
| CN1C(=O)[C@H](CCCCN)NC(=O)[C@H](CCCN)NCc2cccnc2Sc2c(Cl)ccc(Cl)c2CNC(=O)[C@@H]1Cc1c[nH]c2ccccc12 [RO7075573] | – | – | -29% | – | – | – | – | 11% | 9% | -4% | 26% | 20% | -16% |
| CN1C(=O)[C@H](CCCCN)NC(=O)[C@H](CCCN)NCc2cccnc2Sc2c(Cl)ccc(-c3ccc(C(=O)O)cc3)c2CNC(=O)[C@@H]1Cc1c[nH]c2ccccc12 [RO7202110] | 13% | 9% | -25% | 5% | 32% | -6% | -8% | – | – | – | – | – | – |
| CN1C(=O)[C@H](CCCCN)NC(=O)[C@H](CCCN)NCc2cccnc2Sc2cccc(-c3ccc(C(=O)O)cc3)c2CNC(=O)[C@@H]1Cc1c[nH]c2ccccc12 [zosurabalpin] | – | – | 15% | – | – | – | – | 0% | -1% | 5% | 9% | -3% | -4% |
